According to the NIST ThermoML archive (doi:10.1016/j.fluid.2010.01.020):

Assays:
[1] = Crystal
[2] = Molar enthalpy of transition or fusion; conditions: Crystal; DSC
[3] = xn = mol fraction of the nth substance listed; conditions: 101 kPa, Liquid, Vibrating tube method

CCn1cc[n+](C)c1.Cc1ccc(S(=O)(=O)[O-])cc1 [1-ethyl-3-methylimidazolium 4-methylbenzenesulfonate]
[1]
Conditions | Normal melting temperature [°C]
DTA | 49.2
Solid-Liquid Equilibrium | 53.5

Conditions | Molar enthalpy of transition or fusion [kcal/mol]
[2] | 4.9

CCn1cc[n+](C)c1.N#C[S-] [1-ethyl-3-methylimidazolium thiocyanate] + O
mass density [kg/m3], [3]
Conditions | 298.15 K | 308.15 K | 318.15 K | 328.15 K | 338.15 K | 348.15 K
x1 = 0.0248 | 1016 | 1010.56 | 1005.23 | 1000.09 | 994.12 | 987.53
x1 = 0.0635 | 1036.86 | 1031.47 | 1025.75 | 1019.71 | 1013.39 | 1006.75
x1 = 0.1377 | 1062.14 | 1056.21 | 1049.96 | 1043.71 | 1036.7 | 1030.27
x1 = 0.2145 | 1077.88 | 1071.45 | 1064.98 | 1058.44 | 1051.85 | 1045.17
x1 = 0.3381 | 1092.51 | 1086.08 | 1079.64 | 1073.2 | 1066.76 | 1060.28
x1 = 0.4198 | 1098.72 | 1092.33 | 1085.98 | 1079.65 | 1073.3 | 1066.97
x1 = 0.5599 | 1105.92 | 1099.59 | 1093.4 | 1087.19 | 1081 | 1074.85
x1 = 0.6524 | 1109.2 | 1102.99 | 1096.81 | 1090.66 | 1084.56 | 1078.47
x1 = 0.7369 | 1111.59 | 1105.42 | 1099.15 | 1093.24 | 1087.14 | 1081.08
x1 = 0.8256 | 1113.68 | 1107.51 | 1101.41 | 1095.36 | 1089.34 | 1083.37
x1 = 0.9263 | 1115.64 | 1109.54 | 1103.5 | 1097.51 | 1091.43 | 1085.62
x1 = 1 | 1116.84 | 1110.73 | 1104.67 | 1098.69 | 1092.73 | 1086.83

O [water] + CCn1cc[n+](C)c1.N#C[S-]
[3], x2 = 0
Conditions | mass density [kg/m3]
308.15 K | 992.03
318.15 K | 987.02
328.15 K | 981.69
338.15 K | 977.03
348.15 K | 971.75
